This is an account of results in patent US8658390B2, “Method for detecting muscle degenerative diseases, and method for determining therapeutic efficacy on the diseases” (Osaka Bioscience Institute, priority 2009, dated 2014).

Assay [1] deals with mdx mice. Nature of the assay: Forefoot grip strength of mdx mice (symptom evaluation). In kind it is in vivo, mouse. The note with it: 4 weeks old, oral, 30 mg/kg for 5 days, solvent group showed no significant change (FIG. 1, right). As for the experimental part: (§1) Muscular dystrophy mouse: mdx (C57Bl/10 ScSn; available from JAX Laboratories)
A solvent (0.5% methylcellulose solution) or test compound 1 was orally administered to mdx mice, 4 weeks old, for 5 days at a dose of 30 mg/kg. Using a metabolism cage for mice, urine was collected over the course of about 12 hours before the administration of test compound 1 and 5 days after the administration. For comparison, urine was also collected from wild-type mice of the same weeks old and the same lineage used as a control. The creatinine concentration in urine was measured using a measurement kit (L-type Wako CRE M, Wako Pure Chemical Industries, Ltd.).
For the symptom evaluation of the mdx mice, the forefoot grip strength was measured using a grip dynamometer for mice (traction meter; BrainSienceldea). Each measurement was made in 2 min, and the mean value of five trials was calculated.

Assay [2] has as its system mdx mice. Briefly: Urine Tetranor-PGDM concentration in mdx mice (HPLC-MS/MS). The class given is in vivo, mouse. The note with it: oral, 30 mg/kg for 5 days (FIG. 1, left). As to the method: as §1
A solvent (0.5% methylcellulose solution) or test compound 1 was orally administered to mdx mice, 4 weeks old, for 5 days at a dose of 30 mg/kg. Using a metabolism cage for mice, urine was collected over the course of about 12 hours before the administration of test compound 1 and 5 days after the administration. For comparison, urine was also collected from wild-type mice of the same weeks old and the same lineage used as a control. The creatinine concentration in urine was measured using a measurement kit (L-type Wako CRE M, Wako Pure Chemical Industries, Ltd.). […]
The pretreated urine sample was used for the measurement of Tetranor-PGDM levels. […] MRM (Multiple Reaction Monitoring) was used for quantification. In this technique, only the true parent ions are specifically selected from the mass of the parent ions (precursor ion) and of the fragment ions resulting from CID (collision-induced dissociation), and the parent ions are accurately quantified from the area of the selected ions. […] The fragment ions are then isolated in a second mass analyzer (Q3), and detected at the detector provided downstream. […] Area calculations were performed for the peaks originating from the Tetranor-PGDM in the resulting mass chromatogram, and each peak was quantified from the standard curve created from the standard sample. […]

The subject of assay [3] is CXMDJ. Nature of the assay: Symptom scores of muscular dystrophy dog CXMDJ. The class given is in vivo.
The test system of assay [4] is CXMDJ. Nature of the assay: Urine Tetranor-PGDM concentration in muscular dystrophy dog CXMDJ (HPLC-MS/MS). The class given is in vivo. The text has this: Muscular dystrophy dog: CXMDJ (CXMDJ; available from National Center of Neurology and Psychiatry)
CXMDJ was orally administered with a solvent (0.5% methylcellulose solution) or test compound 2 for about 1 year, followed by the administration of test compound 2 for the solvent-administrated dog, and the solvent for the test compound 2-administered dog. Urine was collected before switching from the solvent to test compound 2, and from test compound 2 to the solvent. Urine was collected over time after the administered solution was switched. For comparison, urine was also collected from normal beagles used as a control.
The urine (200 μL) collected from the mice or dogs was mixed with 5 ng of deuterium-labeled Tetranor-PGDM-d6 (Cayman Chemical) used as internal standard. The volume was adjusted to 2 mL with purified water, and pH was adjusted to 3. The urine was then injected to a Sep-Pak Vac C18 cartridge (Waters) equilibrated with acetonitrile (5 mL) and purified water (5 mL). The sample was washed with a 10% acetonitrile solution (5 mL) prepared using purified water, and with hexane (10 mL), and eluted with ethyl acetate (5 mL) before being dried under a stream of nitrogen. The residue was dissolved in a 10% acetonitrile solution (100 μL) prepared using purified water, and used as a measurement sample.
The pretreated urine sample was used for the measurement of Tetranor-PGDM levels. […] MRM (Multiple Reaction Monitoring) was used for quantification. In this technique, only the true parent ions are specifically selected from the mass of the parent ions (precursor ion) and of the fragment ions resulting from CID (collision-induced dissociation), and the parent ions are accurately quantified from the area of the selected ions. […] The fragment ions are then isolated in a second mass analyzer (Q3), and detected at the detector provided downstream. Tetranor-PGDM (mass number 328) was detected by using any of the ions with a m/z (mass number charge) of 155, 143, and 109 produced by further decomposing the product ions with a m/z of 327 by CID (collision-induced dissociation). The internal standard Tetranor-PGDM-d6 (mass number 334) was detected by using any of the product ions with a m/z (mass number÷charge) of 161, 149, and 109 produced by further decomposing the product ions with a m/z of 333 by CID (collision-induced dissociation). […] Area calculations were performed for the peaks originating from the Tetranor-PGDM in the resulting mass chromatogram, and each peak was quantified from the standard curve created from the standard sample. In the quantification, correction was made by using the area value of the peak originating from the Tetranor-PGDM-d6 introduced as the internal standard for the correction of the extraction efficiency and ionization efficiency in each analysis.

Where [5] appears, read: CXMDJ switched to solvent after about 1 year of oral test compound 2 (FIG. 2, left).
[6] abbreviates: CXMDJ switched to the inhibitor after about 1 year of oral solvent (FIG. 2, right).

In the case of `c1ccc(C(OC2CCN(CCCc3nnn[nH]3)CC2)c2ccccc2)cc1` [Test compound 1, 4-benzhydryloxy-1-{3-(1H-tetrazol-5-yl)-propyl}piperidine], in the assay with mdx mice [1], the forefoot grip strength entry is recorded as “significantly increased”. For the same compound, in the assay with mdx mice [2], the “Tetranor-PGDM concentration in urine” value was “significantly lower”.

Regarding `CON(C)C(=O)c1[nH]c(C)c(-c2nc3ccc(C(=O)c4ccccc4)cc3[nH]2)c1C` [Test compound 2], the symptom scores entry was “worsened” with CXMDJ [3] (setting [5]) and “improved” in the assay with CXMDJ [3] (setting [6]). The “Tetranor-PGDM concentration in urine” value with CXMDJ [4] (CXMDJ dog orally administered with test compound 2, compared with CXMDJ dog (Table 1)) is “decreased”. In addition, the “urine Tetranor-PGDM concentration” value in the assay with CXMDJ [4] (setting [5]) is “increased”; in the assay on CXMDJ [4] (setting [6]), “decreased”. Further, the Tetranor-PGDM concentration in the assay on CXMDJ [4] (urine of HPGDS inhibitor-administered CXMDJ dog (CXMDJ dog without inhibitor 27.8)) was found to be 17.9 ng/mL.
